System: progeria senescent fibroblasts (passage 17)
Test: Morphological change by microscopy
Format: cell-based, human
Settings: CP-466722 0.1 μM
Description: Progeria senescent fibroblasts (Hutchinson-Gilford Progeria Syndrome Skin Fibroblasts, Coriell Cell Repositories, AG03198 B) were inoculated into a DMEM medium containing 10% FBS, 100 units/ml of penicillin, and 100 μg/ml of streptomycin (wherein all antibiotics were purchased from Gibco-BRL, Grand Island, N.Y.), and then, cultured in a 5% CO2 incubator at a temperature of 37° C. When progeria senescent cells were grown to about 85% confluency in a plate, the progeria senescent cells were subjected to subculture. The early subculture was carried out at a split ratio of 1:4, and the late subculture was carried out at a split ratio of 1:2. When the cell doubling time was 14 days, the cells were considered to be progeria senescent fibroblasts (passages 16 to 17).
[…] The medium was replaced by a fresh medium containing KU-60019 (0.5 μM), once every 4 days. In addition, as a negative control group, the cells were cultured under the same conditions as described above, except that a medium used herein contained DMSO (0.05 (v/v) %).
In FIG. 10, a human dermal fibroblast was cultured in the presence of the ATM-kinase inhibitor KU-60019 (0.5 μM), and then, the cell shapes were photographed using a microscope. To provide a better view of the cells formed in a dashed square a, a dashed square a1 was randomly selected, and then, the cells are shown enlarged in the dashed square a1. […]

**Q.** Which “cell number and morphology vs DMSO control” value does the source give for `COc1cc2ncnc(-n3nc(-c4ccccn4)nc3N)c2cc1OC` [CP-466722, 2-(6,7-dimethoxyquinazolin-4-yl)-5-(pyridin-2-yl)-2H-1,2,4-triazol-3-amine] here?
**A.** The value was “exist in a great number in the presence of CP-466722 and show a spindle form”.

From patent US9770451B2, “Composition including ATM inhibitor for reducing cellular senescence and use of the composition” (Samsung Electronics Co., Ltd., priority 2014, dated 2017)
